According to paper PMC11672637, “7-O-Carboxylic Acid-Substituted 3-O-Alkyl Difluoroquercetin; An Aztreonam-Potentiating Agent Against Carbapenemase-Producing Pseudomonas aeruginosa Through Simultaneous Inhibition of Metallo-β-Lactamase and Efflux Pump” (Antibiotics, 2024):
Read-outs that look alike come from different tables or passages of the source.

Assays:
PA-027, blaIMP = test: MIC / checkerboard with ATM; type: cell-based, P. aeruginosa; details: for MIC: Pseudomonas aeruginosa, read-out: MIC of ATM with 5, PA-027
[1] = system: NDM-1-Producing P. aeruginosa (PA-017, blaNDM); test: MIC / checkerboard with ATM; type: cell-based; details: for MIC: Pseudomonas aeruginosa
PA-031, blaNDM = test: MIC / checkerboard with ATM; type: cell-based, P. aeruginosa; details: for MIC: Pseudomonas aeruginosa, read-out: MIC of ATM with 5, PA-031
PA-044, blaNDM = test: MIC / checkerboard with ATM; type: cell-based, P. aeruginosa; details: for MIC: Pseudomonas aeruginosa, read-out: MIC of ATM with 5, PA-044
PA-037, blaIMP/NDM = test: MIC / checkerboard with ATM; type: cell-based, P. aeruginosa; details: for MIC: Pseudomonas aeruginosa, read-out: MIC of ATM with 5, PA-037
[2] = system: ATM-Resistant CPPA (n = 15); test: MIC distribution over clinical isolates; type: cell-based, P. aeruginosa; details: for inhibition at 1 µg/mL / inhibition at 2 µg/mL / inhibition at 4 µg/mL / inhibition at 8 µg/mL: Pseudomonas aeruginosa; for inhibition at 1 µg/mL: read-out: Cumulative % inhibition by ATM, 5 at 1 mg/L; for inhibition at 2 µg/mL: read-out: Cumulative % inhibition by ATM, 5 at 2 mg/L; for inhibition at 4 µg/mL: read-out: Cumulative % inhibition by ATM, 5 at 4 mg/L; for inhibition at 8 µg/mL: read-out: Cumulative % inhibition by ATM, 5 at 8 mg/L

SMILES: CC(C)(C)CCOc1c(-c2ccc(F)c(F)c2)oc2cc(OCC(=O)O)cc(O)c2c1=O [Compound 5, 2-((2-(3,4-Difluorophenyl)-3-(3,3-dimethylbutoxy)-5-hydroxy-4-oxo-4H-chromen-7-yl)oxy)acetic Acid]
- Activity (FICI class) (PA-027, blaIMP; PA-027): S (S (Synergy, FICI ≤ 0.5))
- Concentrations of ATM and 5 at lowest FICI (ATM/5) (PA-027, blaIMP; PA-027): 8/4
- Lowest FICI (ATM/5) (PA-027, blaIMP; PA-027): 0.26
- Minimum concentration of 5 to make sensitive to ATM (PA-027, blaIMP; PA-027): 4 mg/L
- Susceptibility to ATM (PA-027, blaIMP; PA-027, ATM/5): S (S (sensitive, MIC ≤ 8 mg/L))
- FD (fold decrease in MIC of ATM with 5) (PA-027, blaIMP; PA-027, lowest-FICI combination): 4
- MIC (PA-027, blaIMP; 5 at 1 mg/L): 32 µg/mL
- MIC (PA-027, blaIMP; 5 at 2 mg/L): 16 µg/mL
- MIC (PA-027, blaIMP; 5 at 4 mg/L): 8 µg/mL
- MIC (PA-027, blaIMP; 5 at 8 mg/L): 4 µg/mL
- MIC (PA-027, blaIMP; 5 at 16 mg/L): 2 µg/mL
- MIC (PA-027, blaIMP; 5 at 32 mg/L): 2 µg/mL
- MIC (PA-027, blaIMP; 5 at 64 mg/L): 2 µg/mL
- Activity (FICI class) ([1]; PA-017): S (S (Synergy, FICI ≤ 0.5))
- Concentrations of ATM and 5 at lowest FICI (ATM/5) ([1]; PA-017): 4/4
- Lowest FICI (ATM/5) ([1]; PA-017): 0.26
- Minimum concentration of 5 to make sensitive to ATM ([1]; PA-017): 4 mg/L
- Susceptibility to ATM ([1]; PA-017, ATM/5): S (S (sensitive, MIC ≤ 8 mg/L))
- FD (fold decrease in MIC of ATM with 5) ([1]; PA-017, lowest-FICI combination): 4
- MIC ([1]; PA-017, compound alone, read-out: MIC, Cmpd): > 256 µg/mL
- MIC ([1]; read-out: MIC of ATM with 5, PA-017, 5 at 1 mg/L): 8 µg/mL
- MIC ([1]; read-out: MIC of ATM with 5, PA-017, 5 at 2 mg/L): 8 µg/mL
- MIC ([1]; read-out: MIC of ATM with 5, PA-017, 5 at 4 mg/L): 4 µg/mL
- MIC ([1]; read-out: MIC of ATM with 5, PA-017, 5 at 8 mg/L): 4 µg/mL
- MIC ([1]; read-out: MIC of ATM with 5, PA-017, 5 at 16 mg/L): 2 µg/mL
- MIC ([1]; read-out: MIC of ATM with 5, PA-017, 5 at 32 mg/L): 2 µg/mL
- MIC ([1]; read-out: MIC of ATM with 5, PA-017, 5 at 64 mg/L): 1 µg/mL
- Activity (FICI class) (PA-031, blaNDM; PA-031): S (S (Synergy, FICI ≤ 0.5))
- Concentrations of ATM and 5 at lowest FICI (ATM/5) (PA-031, blaNDM; PA-031): 1/8
- Lowest FICI (ATM/5) (PA-031, blaNDM; PA-031): 0.27
- Susceptibility to ATM (PA-031, blaNDM; PA-031, ATM/5): S (S (sensitive, MIC ≤ 8 mg/L))
- FD (fold decrease in MIC of ATM with 5) (PA-031, blaNDM; PA-031, lowest-FICI combination): 4
- MIC (PA-031, blaNDM; 5 at 1 mg/L): 2 µg/mL
- MIC (PA-031, blaNDM; 5 at 2 mg/L): 2 µg/mL
- MIC (PA-031, blaNDM; 5 at 4 mg/L): 2 µg/mL
- MIC (PA-031, blaNDM; 5 at 8 mg/L): 1 µg/mL
- MIC (PA-031, blaNDM; 5 at 16 mg/L): 1 µg/mL
- MIC (PA-031, blaNDM; 5 at 32 mg/L): 1 µg/mL
- MIC (PA-031, blaNDM; 5 at 64 mg/L): 1 µg/mL
- Activity (FICI class) (PA-044, blaNDM; PA-044): S (S (Synergy, FICI ≤ 0.5))
- Concentrations of ATM and 5 at lowest FICI (ATM/5) (PA-044, blaNDM; PA-044): 4/8
- Lowest FICI (ATM/5) (PA-044, blaNDM; PA-044): 0.27
- Minimum concentration of 5 to make sensitive to ATM (PA-044, blaNDM; PA-044): 4 mg/L
- Susceptibility to ATM (PA-044, blaNDM; PA-044, ATM/5): S (S (sensitive, MIC ≤ 8 mg/L))
- FD (fold decrease in MIC of ATM with 5) (PA-044, blaNDM; PA-044, lowest-FICI combination): 4
- MIC (PA-044, blaNDM; 5 at 1 mg/L): 16 µg/mL
- MIC (PA-044, blaNDM; 5 at 2 mg/L): 16 µg/mL
- MIC (PA-044, blaNDM; 5 at 4 mg/L): 8 µg/mL
- MIC (PA-044, blaNDM; 5 at 8 mg/L): 4 µg/mL
- MIC (PA-044, blaNDM; 5 at 16 mg/L): 4 µg/mL
- MIC (PA-044, blaNDM; 5 at 32 mg/L): 4 µg/mL
- MIC (PA-044, blaNDM; 5 at 64 mg/L): 4 µg/mL
- Activity (FICI class) (PA-037, blaIMP/NDM; PA-037): S (S (Synergy, FICI ≤ 0.5))
- Concentrations of ATM and 5 at lowest FICI (ATM/5) (PA-037, blaIMP/NDM; PA-037): 1/8
- Lowest FICI (ATM/5) (PA-037, blaIMP/NDM; PA-037): 0.27
- Susceptibility to ATM (PA-037, blaIMP/NDM; PA-037, ATM/5): S (S (sensitive, MIC ≤ 8 mg/L))
- FD (fold decrease in MIC of ATM with 5) (PA-037, blaIMP/NDM; PA-037, lowest-FICI combination): 4
- MIC (PA-037, blaIMP/NDM; 5 at 1 mg/L): 2 µg/mL
- MIC (PA-037, blaIMP/NDM; 5 at 2 mg/L): 2 µg/mL
- MIC (PA-037, blaIMP/NDM; 5 at 4 mg/L): 2 µg/mL
- MIC (PA-037, blaIMP/NDM; 5 at 8 mg/L): 1 µg/mL
- MIC (PA-037, blaIMP/NDM; 5 at 16 mg/L): 1 µg/mL
- MIC (PA-037, blaIMP/NDM; 5 at 32 mg/L): 1 µg/mL
- MIC (PA-037, blaIMP/NDM; 5 at 64 mg/L): 1 µg/mL
- ATM-non-susceptible pathogens (MIC ≥ 16 mg/L) converted into sensitive ones by combination with 5 [2]: 14 out of 15
- inhibition at 1 µg/mL ([2]; ATM 0.5 mg/L): 0%
- inhibition at 1 µg/mL ([2]; ATM 1 mg/L): 0%
- inhibition at 1 µg/mL ([2]; ATM 2 mg/L): 0%
- inhibition at 1 µg/mL ([2]; ATM 4 mg/L): 0%
- inhibition at 1 µg/mL ([2]; ATM 8 mg/L): 7%
- inhibition at 1 µg/mL ([2]; ATM 16 mg/L): 67%
- inhibition at 1 µg/mL ([2]; ATM 32 mg/L): 100%
- inhibition at 1 µg/mL ([2]; ATM 64 mg/L): 100%
- inhibition at 2 µg/mL ([2]; ATM 0.5 mg/L): 0%
- inhibition at 2 µg/mL ([2]; ATM 1 mg/L): 0%
- inhibition at 2 µg/mL ([2]; ATM 2 mg/L): 0%
- inhibition at 2 µg/mL ([2]; ATM 4 mg/L): 0%
- inhibition at 2 µg/mL ([2]; ATM 8 mg/L): 7%
- inhibition at 2 µg/mL ([2]; ATM 16 mg/L): 87%
- inhibition at 2 µg/mL ([2]; ATM 32 mg/L): 100%
- inhibition at 2 µg/mL ([2]; ATM 64 mg/L): 100%
- inhibition at 4 µg/mL ([2]; ATM 0.5 mg/L): 0%
- inhibition at 4 µg/mL ([2]; ATM 1 mg/L): 0%
- inhibition at 4 µg/mL ([2]; ATM 2 mg/L): 0%
- inhibition at 4 µg/mL ([2]; ATM 4 mg/L): 7%
- inhibition at 4 µg/mL ([2]; ATM 8 mg/L): 67%
- inhibition at 4 µg/mL ([2]; ATM 16 mg/L): 100%
- inhibition at 4 µg/mL ([2]; ATM 32 mg/L): 100%
- inhibition at 4 µg/mL ([2]; ATM 64 mg/L): 100%
- inhibition at 8 µg/mL ([2]; ATM 0.5 mg/L): 0%
- inhibition at 8 µg/mL ([2]; ATM 1 mg/L): 0%
- inhibition at 8 µg/mL ([2]; ATM 2 mg/L): 0%
